Assay results from PubChem BioAssay AID2141 (Sanford-Burnham Center for Chemical Genomics, 2009).
Activity calls are given as the source filed them. How the calls were made is not given here.

molecular target: E3 ubiquitin-protein ligase SIAH1 (Homo sapiens) (UniProt Q8IUQ4); assay: inhibitors of Siah-1 ligand interaction – biochemical, TR-FRET, dose response (AID 2141); conditions: TR-FRET biochemical assay, Siah-1 binding

IC50 | Compound
> 200 µM (inactive) | CCN(CC)CCOC(=O)c1ccc(N/C=C(/C#N)c2nc(-c3cc4ccccc4oc3=O)cs2)cc1
> 200 µM (inactive) | CN(C)CCOC(=O)CCc1ccccc1
> 200 µM (inactive) | Cc1ccc(OCCCN2CCOCC2)cc1
> 200 µM (inactive) | O=C(Nc1ccc(Cl)cc1)c1ccc(S(=O)(=O)N2CCOCC2)cc1
> 200 µM (inactive) | CCC(C)N1C(=O)/C(=C/c2c(NCCCOC(C)C)nc3c(C)cccn3c2=O)SC1=S (stereo not given)
> 200 µM (inactive) | CCOc1cc(/C=C(\C#N)C(=O)Nc2ccccc2C(=O)O)ccc1OC(=O)c1ccc(C)cc1
> 200 µM (inactive) | O=c1ccc2c(-c3ccccc3)c3ccc(O)cc3oc-2c1
8.87 µM | CCc1nnc(NS(=O)(=O)c2ccc(NC(=S)NC(=O)/C=C/c3ccc(C(C)C)cc3)cc2)s1
11.6 µM | O=C(Nc1cccc(Oc2ccc(C(=O)O)c(C(=O)O)c2)c1)c1ccc(-c2ccccc2)cc1
5.11 µM | CCOc1ccccc1CNc1ccc(O)cc1
inactive | CC(NC(=O)Nc1ccc(O)cc1)(C(F)(F)F)C(F)(F)F
> 200 µM (inactive) | C=C(C)Cn1c(N2CCN(CC)CC2)nc2c1c(=O)[nH]c(=O)n2C
18.3 µM | O=C(O)c1ccc(/C=N/NC(=O)c2ccc(CN3c4cccc5cccc(c45)S3(=O)=O)cc2)cc1
< 1.56 µM | C=CCn1c(NS(=O)(=O)c2ccccc2)c(S(=O)(=O)c2ccc(C)cc2)c2nc3ccccc3nc21
< 1.56 µM | NS(=O)(=O)c1ccc(NS(=O)(=O)c2ccc(NC(=O)c3ccc(-c4ccccc4)cc3)cc2)cc1
3.41 µM | CCCCn1c(NS(=O)(=O)c2ccc(C)cc2)c(S(=O)(=O)c2ccccc2)c2nc3ccccc3nc21
1.79 µM | O=C(N/N=C/c1ccc(OC(=O)c2cccs2)cc1)c1cccc(F)c1
5.04 µM | Cc1ccccc1NC(=O)CN1C(=O)N/C(=C\c2ccccc2OCc2ccc(C(=O)O)cc2)C1=O
7.1 µM | O=C(O)c1cc(Cl)c(Cl)cc1C(=O)Nc1cccc2cccnc12
inactive | COc1cc(CC(=O)NCc2ccc3c(c2)OCO3)cc(OC)c1OC

IC50 | Compound
> 200 µM (inactive) | COc1cc(NS(=O)(=O)c2ccc(NC(=S)NC(=O)/C=C/c3ccc(F)cc3)cc2)ncn1
> 200 µM (inactive) | CC12CCC(C(=O)NCc3ccc(Cl)cc3)(OC1=O)C2(C)C (stereo not given)
7.29 µM | O=C(Cn1cnc2scc(-c3ccccc3)c2c1=O)NCc1ccco1
4.27 µM | O=C(Nc1ccc(Br)cc1)c1ccc(N2C(=O)C3CC=CCC3C2=O)cc1 (stereo not given)
> 200 µM (inactive) | COc1cc(/C=C2/SC(=S)N(Cc3ccccc3)C2=O)cc(Cl)c1O
1.89 µM | O=C(Nc1ccc(S(=O)(=O)N2CCOCC2)cc1)c1ccc(=O)[nH]c1
inactive | CN(C)c1cccc2c(C=C(C#N)C#N)ccc(N(C)C)c12
> 200 µM (inactive) | CC1CCN(S(=O)(=O)c2nnc(NC(=O)c3cccc(Cl)c3)s2)CC1
4.66 µM | COc1cc(CNc2ccc(O)cc2)cc(Br)c1OCc1ccccc1F
2.09 µM | O=S(=O)(Nc1c(S(=O)(=O)c2ccccc2)c2nc3ccccc3nc2n1C1CCCCC1)c1ccccc1
> 200 µM (inactive) | COc1ccc(C(C(=O)NCc2ccccc2)N(Cc2ccco2)C(=O)c2cnccn2)cc1 (stereo not given)
> 200 µM (inactive) | N#CC1C=Cc2ccccc2N1C(=O)c1ccccc1 (stereo not given)
> 200 µM (inactive) | COc1ccc(N=C2NC(=O)S/C2=C\c2ccc(N(C)C)cc2)cc1
6.36 µM | O=C(CC1Nc2cccc3cccc(c23)NC1=O)Nc1ccccc1 (stereo not given)
inactive | CSc1ccccc1C(=O)NC(C)c1ccc(-n2ccnc2)cc1 (stereo not given)
> 200 µM (inactive) | Cc1ccn2c(C(=O)CSc3ccc(Cl)cc3Cl)c(C)nc2c1
6.3 µM | O=C(NCc1ccc(Cl)cc1)c1cc(-c2cccs2)on1
3.96 µM | CCNc1ccc(C(=O)O)cc1N
> 200 µM (inactive) | COc1ccc(CCNC(=O)c2ccc(S(=O)(=O)N(C)c3ccccc3)cc2)cc1OC

Compound | IC50
C[C@]12CCC3C(CC=C4C[C@@H](O)CC[C@@]43C)C1CCC2[C@]1(C)CCC(=O)O1 (stereo not given in full) | > 200 µM (inactive)
